Key:
[1] = tested on: Transgenic nematodes (CL2006) expressing human amyloid-β 1-42, Aβ42; assay: Paralysis test using transgenic nematodes expressing amyloid peptide; format: in vivo, Caenorhabditis elegans; settings: fed with 50 μM betanin, compared to group fed with dextrin (control)
Description: In a transgenic nematode expressing an amyloid peptide, aggregates of the amyloid peptide are formed in the body along with its growth period, and the nematode is paralyzed. In view of this, whether feeding with betanin changed a paralysis ratio was evaluated.
Nematodes were grown using NGM plates (nematode growth medium), and grown using Escherichia coli (OP50 strain) as food under the condition of 15° C. unless otherwise indicated.
Transgenic nematodes (CL2006) expressing an amyloid peptide (human amyloid-β 1-42, Aβ42) were obtained from the Caenorhabditis Genetics Center (CGC), USA. The CL2006 expresses Aβ42 in the cells of the body wall muscle of the nematode, and then aggregation of the amyloid peptide occurs in the muscle. […]
The individuals grown to adults through the synchronized growth were transferred to NGM plates containing various concentrations (2 μM, 10 μM, and 50 μM) of food having mixed therein dextrin or betanin, and were grown. After the nematodes had been transferred, the nematodes were each evaluated for paralysis at constant intervals. […]
Paralysis was evaluated on the basis of the behavior of the nematode after the nose of the nematode had been lightly tapped with a platinum wire.

[2] = biological target: T1, human amyloid-β 1-40, Aβ40 (Homo sapiens, UniProt P05067); assay: Observation of amyloid peptide aggregation using transmission electron microscope; format: biochemical; settings: 25 μM Aβ40 + 50 μM sample, 5 days; for effect on polymerization and amorphous aggregation of amyloid fibrils (conclusion from TEM): 37° C.; for aggregation of the amyloid peptide observed by TEM: PBS pH 7.4, 37° C., dark
T1 construct: A lyophilized amyloid peptide (human amyloid-β 1-40, Aβ40) was purchased from Peptide Institute, Inc; purchased Peptide Institute, Inc
T1 sequence (P05067 672-711 limits assumed): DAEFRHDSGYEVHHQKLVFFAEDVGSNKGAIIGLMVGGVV
Description: A lyophilized amyloid peptide (human amyloid-β 1-40, Aβ40) was purchased from Peptide Institute, Inc., dissolved as a stock solution at a concentration of 1 mM using dimethyl sulfoxide, and stored at-20° C. until use.
As a betaxanthin, the betaxanthin extracted from the betaxanthin-producing BY2 cells (FIG. 10) was used.
With regard to reaction conditions, Aβ40 and a sample (betanin, amaranthin, celosianin II, ferulic acid, or the betaxanthin) were prepared with PBS (pH 7.4) so as to have a final concentration of 25 μM and a final concentration of 50 μM, respectively. As a control, distilled water was used in place of the sample. The prepared sample was left to stand still in a dark place at 37° C. for 5 days.
The sample after the reaction was stained on a grid mesh for a transmission electron microscope by adding about 2 μL of a 2% uranyl acetate solution thereto. After the solution had dried, the aggregation of the amyloid peptide was observed using a transmission electron microscope (Hitachi 7650 TEM).

β-Amyloid (1-40) = biological target: T2, β-Amyloid (1-40) (Homo sapiens, UniProt P05067); assay: Amyloid-β polymerization inhibitory activity in Thioflavin T (ThT) assay; format: biochemical; settings: sample 50 μM final; ThT fluorescence for 4 hours
T2 construct: SensoLyte Thioflavin T β-Amyloid (1-40) Aggregation Kit (ANASPEC); purchased ANASPEC
T2 sequence (P05067 672-711 limits assumed): as above
Description: ThT assay involved evaluating polymerization using SensoLyte Thioflavin T β-Amyloid (1-40) Aggregation Kit (ANASPEC) in accordance with an accompanying protocol.
As an apparatus used for measurement, Varioskan LUX (Thermo Fisher Scientific) was used, and fluorescence derived from the polymerization of amyloid-β was measured for 4 hours at intervals of 5 minutes. A sample was stirred for 15 seconds before each measurement and subjected to the measurement. An excitation wavelength of 440 nm and a detection wavelength of 484 nm were used.
The sample used for the ThT assay was prepared to have a final concentration of 50 μM before being used for the experiment. Tannic acid (Ono, K., Hasegawa, K., Naiki, H. & Yamada, M. (2004) Anti-amyloidogenic activity of tannic acid and its activity to destabilize Alzheimer's beta-amyloid fibrils in vitro. Biochim Biophys Acta 1690, 193-202.) was used as a control of an inhibitor.
The sample used for the ThT assay was prepared to have a final concentration of 50 μM before being used for the experiment. An extracted sample from the BY-2 cells having an empty vector introduced therein (VC) and water (PC) in place of a sample were used as controls. In addition, betanin and curcumin were used as positive controls. Curcumin is a plant-derived substance reported to have amyloid-β polymerization inhibitory activity (Yang F, Lim GP, Begum AN, et al. Curcumin inhibits formation of amyloid betaoligomers and fibrils, binds plaques, and reduces amyloid in vivo. J BiolChem. 2005; 280(7): 5892-5901. doi:10.1074/jbc.M404751200).

[3] = Stability of betalain pigment aqueous solutions at 37° C.; format: physicochemical; settings: for red color after treatment: 4 days at 37° C.
Description: An aqueous solution of each of celosianin II, amaranthin, and betanin was evaluated for its stability at 37° C.
For each of betanin, amaranthin, and celosianin II, a 1 mM aqueous solution was prepared, and left to stand still in an incubator at 37° C. Absorbances at 536 nm on days 0, 1, 2, 3, and 4 were measured, and for the resultant values, relative amounts with respect to the absorbance on day 0 were calculated.

[4] = biological target: T3, recombinant HIV-1 protease (Human immunodeficiency virus type 1 group M subtype B, UniProt P04585); assay: HIV-1 protease inhibitory activity (residual substrate peptide by HPLC); format: biochemical
T3 construct: A recombinant HIV-1 protease (ab84117) from Abcam was used as an HIV-1 protease; purchased Abcam ab84117
Description: A recombinant HIV-1 protease (ab84117) from Abcam was used as an HIV-1 protease, and an HIV-1 protease substrate (Lys-Ala-Arg-Val-Nle-p-nitro-Phe-Glu-Ala-Nle amide) from Sigma-Aldrich was used as a substrate peptide for the HIV-1 protease. HIV-1 protease activity evaluation was performed with reference to a previously reported method (Boso, G., Orvell, C. and Somia, N.V. (2015) The nature of the N-terminal amino acid residue of HIV-1 RNase H is critical for the stability of reverse transcriptase in viral particles. J. Virol. 89, 1286-1297.). Amaranthin, betanin, or celosianin II was added to 16 pmol of the HIV-1 protease and 4 nmol of the HIV-1 protease substrate, a buffer (25 mM NaCl, 25 mM Na2HPO4, 1 mM dithiothreitol, pH 4.7) was added so that the amount of a reaction liquid was 30 μl, and a reaction was performed at 25° C. for 2 hours. With regard to the addition amount of amaranthin, betanin, or celosianin II, amaranthin, betanin, and celosianin II were each added at the ratio of a 100-fold amount with respect to the amount of the HIV-1 protease. For celosianin II, the ratios of 25-and 50-fold amounts were further evaluated. An HIV-1 inhibitor saquinavir was used as a positive control.
After the reaction, the reaction liquid was measured for the amount of the residual substrate peptide through use of HPLC, and a residual ratio with respect to the substrate before the reaction was calculated. For the HPLC, LC-20AD from Shimadzu was utilized, and a Shim-pack GWS C18 column (5 μm; 200 mm×4.6 mm i.d.; Shimadzu GLC) was used as an analytical column. For an analytical solvent system, 0.05% TFA in water was used as solvent A and 0.05% TFA in acetonitrile was used as solvent B. An HPLC program was set to a linear gradient from 0% of solvent B at 0 minutes to 50% of solvent B at 50 minutes, and the HPLC was performed at a flow rate of 0.5 mL/min and 25° C. Analysis was performed with an analytical wavelength being set to 260 nm allowing the HIV-1 protease substrate peptide to be detected.

O=C(O)C1=C/C(=C/C=[N+]2/c3cc(O)c(OC4OC(CO)[C@@H](O)C(O)C4O)cc3CC2C(=O)[O-])CC(C(=O)O)N1 (stereo in doubt) [betanin]
paralysis ratio [1]: significant amelioration (reduction) in paralysis ratio | effect on polymerization and amorphous aggregation of amyloid fibrils (conclusion from TEM) [2]: inhibiting both of the polymerization and amorphous aggregation of amyloid fibrils | aggregation of the amyloid peptide observed by TEM [2]: only short amyloid fibrils were observed | amyloid-β polymerization inhibitory activity (β-Amyloid (1-40)): comparable to or higher than that of the existing inhibitor (tannic acid) | red color after treatment ([3]; 1 mM aqueous solution): disappeared

O=C(O)C1=C/C(=C/C=[N+]2c3cc(O)c(O[C@@H]4O[C@H](CO)[C@@H](O)[C@H](O)[C@H]4O[C@@H]4O[C@H](C(=O)O)[C@@H](O)[C@H](O)[C@H]4O)cc3C[C@H]2C(=O)[O-])C[C@@H](C(=O)O)N1 [amaranthin]
effect on polymerization and amorphous aggregation of amyloid fibrils (conclusion from TEM) [2]: inhibiting both of the polymerization and amorphous aggregation of amyloid fibrils | aggregation of the amyloid peptide observed by TEM [2]: only short amyloid fibrils were observed | amyloid-β polymerization inhibitory activity (β-Amyloid (1-40)): possessed inhibitory activity, though its effect was low as compared to celosianin II and betanin | red color after treatment ([3]; 1 mM aqueous solution): disappeared

COc1cc(/C=C/C(=O)O[C@H]2[C@H](O[C@H]3[C@H](Oc4cc5c(cc4O)[N+](=C/C=C4/C=C(C(=O)O)N[C@H](C(=O)O)C4)[C@H](C(=O)[O-])C5)O[C@H](CO)[C@@H](O)[C@@H]3O)O[C@H](C(=O)O)[C@@H](O)[C@@H]2O)ccc1O [celosianin II]
dependence of HIV-1 protease inhibitory activity on amount ([4]; 25-, 50- and 100-fold amounts with respect to HIV-1 protease): amount-dependent | HIV-1 protease activity inhibitory effect relative to amaranthin ([4]; 25-fold celosianin II vs 100-fold amaranthin): 4 times | HIV-1 protease inhibitory activity ([4]; celosianin II added in 25-fold amount with respect to HIV-1 protease, 25° C., 2 hours, pH 4.7): comparable to that in the case where a 100-fold amount of amaranthin was added | effect on polymerization and amorphous aggregation of amyloid fibrils (conclusion from TEM) [2]: inhibiting both of the polymerization and amorphous aggregation of amyloid fibrils | aggregation of the amyloid peptide observed by TEM [2]: only short amyloid fibrils were observed | amyloid-β polymerization inhibitory activity (β-Amyloid (1-40)): comparable to or higher than that of the existing inhibitor (tannic acid) | residual amounts of the betalain pigments (absorbance at 536 nm relative to day 0) ([3]; 1 mM aqueous solution, 37° C., days 0 to 4): more abundant than amaranthin and betanin | red color after treatment ([3]; 1 mM aqueous solution): still exhibited a red color | stability of aqueous solution ([3]; 37° C., compared to amaranthin and betanin): stable

COc1cc(/C=C/C(=O)O)ccc1O [ferulic acid]
effect on polymerization and amorphous aggregation of amyloid fibrils (conclusion from TEM) [2]: inhibiting both of the polymerization and amorphous aggregation of amyloid fibrils | aggregation of the amyloid peptide observed by TEM [2]: only short amyloid fibrils were observed | amyloid-β polymerization inhibitory activity (β-Amyloid (1-40)): weaker than those of celosianin II, the betanin pigment, and amaranthin

— patent US20250354188A1, “METHOD FOR SYNTHESIZING CELOSIANIN II, METHOD FOR SYNTHESIZING BETAXANTHIN, AMYLOID-ß POLYMERIZATION INHIBITOR OR THERAPEUTIC OR PROPHYLACTIC AGENT FOR ALZHEIMER'S DISEASE, AMYLOID PEPTIDE AGGREGATION INHIBITOR, AND HIV-1 PROTEASE ACTIVITY INHIBITOR” (priority 2019, published 2025)
